Experimental data taken from a melting point compilation (Tetko et al.; mined from patent text by program, amines drawn as free bases though some values may be those of a salt).

Structure (SMILES) | melting point
O=C(O)c1ccc(-c2cc(-c3ccc(C(F)(F)F)cc3)on2)cc1 | > 300 °C
COc1cnc(C)c(C)c1OC | 36 to 38 °C
O=C(CCN1CCN(c2ccccc2)CC1)NCC(=O)c1ccccc1 | 126 °C
CC(C)N(C1CCCCC1)S(=O)(=O)N[C@@H](Cc1ccc(Nc2nccc3cnccc23)cc1)C(=O)O | 162 °C
CCOP(=O)(Cc1ccc(C2=NCCO2)cc1)OCC | 65 °C
ClC1=NCc2c(-c3noc(C4CC4)n3)ncn2-c2ccc(Cl)cc21 | 200 °C
Cc1nccn1-c1nn(Nc2cnccn2)nc1-c1cccc(C#N)c1 | 276 °C
CN1CCN(S(=O)(=O)c2ccc([N+](=O)[O-])cc2[N+](=O)[O-])CC1 | 164 to 165 °C
C=CCN(c1ncnc2c1ncn2CC(C)O)C1CCCCC1 (stereo unspecified) | 108 to 110 °C
O=C(O)Cc1c(Cl)nc(-c2ccc(O)cc2)n1Cc1ccccc1 | 140 to 145 °C
CC1OP(=O)(O)c2ccccc21 (stereo unspecified) | 148 to 149 °C
CC(C)(C=NO)C(O)(CCc1ccc(F)cc1)Cn1cncn1 (stereo unspecified) | 101 to 103 °C
Cc1c(C(=O)O)cnn1-c1ccc([N+](=O)[O-])cc1 | 202 °C
N#Cc1cnc2c(Br)csc2c1Cl | 176 to 178 °C
Cn1c(-c2ccccc2)cc2oc(=O)nc(-c3ccccc3)c2c1=O | 178 to 179 °C
COC(=O)c1ccc(S(=O)C(Cn2ccnc2)c2ccccc2OC)cc1 (stereo unspecified) | 113 to 115 °C
Cc1ccc(Br)cc1-c1c(O)c(C)nn(C)c1=O | 217 to 218 °C
CCn1nc(-c2ccccc2)c(C(C)=O)c(Nc2cnccn2)c1=O | 229 to 230 °C
Cc1c(O)cc2c(c1Cl)CCC2(C)C | 109 to 110 °C
CNC(=O)c1cccc(NC(=O)Cc2ccc(Br)cc2)c1 | 165 to 166 °C
COC(=O)C1CCc2ccc(O)cc2C1 (stereo unspecified) | 83 to 84 °C
Nc1ccc(NC(=O)[C@@H](NC(=O)c2ccc(C(=O)O)cc2)c2ccccc2)cc1 | 151 °C
CCCCCCC1CCC(O)C(=O)O1 (stereo unspecified) | 75.5 to 77 °C
CCCCCCNc1nc2nc(N)[nH]c(=O)c2s1 | > 320 °C
Cc1cccc(C2=NN=C(c3ccccc3Cc3ccccc3)NN2)c1 | 162 to 163 °C
CCCOc1ccc(C2=NN(C(=O)Nc3ccc(C(F)(F)F)cc3)CC2N(CCC)C(=O)OCC(Cl)(Cl)Cl)cc1 (stereo unspecified) | 162 to 163 °C

Structure (SMILES) | melting point
O=C(NCCCn1cnc(-c2ccccc2)c1)c1ccc(Br)cc1 | 132 to 135 °C
O=Cc1cc(Oc2ccccc2)ccc1O | 54 to 55 °C
CCCCc1nc2c(N)nc3ccccc3c2n1CCCNC(=O)c1cc2ccccc2cn1 | 204 to 205 °C
CCOC(=O)COc1cc2c(c(Cl)c1Cl)C(=O)C(C)(C(C)C)C2 (stereo unspecified) | 113 °C
Cc1ncccc1C(=O)NCC1CCN(C[C@H]2COc3ccc(Cl)cc3O2)CC1 | 133 to 136 °C
CC(C#Cc1ccc(C=Cc2ccccn2)o1)N(O)C(N)=O (stereo unspecified) | 175 °C
C=CCN1C(=O)C2CCc3c(OC)c(OC)cc(C)c3C2C1=O (stereo unspecified) | 90 to 91 °C
CON=C(C(=O)OC)c1ccccc1-c1nnc(-c2cccc(C)c2)o1 | 166 to 167 °C
C[C@H](CO)Nc1nc(SCc2cccc(C(F)(F)F)c2F)nc2[nH]c(=O)cnc12 | 217 to 219 °C
O=c1[nH]c(=O)n(C2OC(CO)CC2O)cc1F (stereo unspecified) | 169 to 171 °C
Cc1csc(C(=O)CCl)c1 | 76 to 77 °C
Cc1cc(C)c2cccc(OCc3c(Cl)ccc(S(=O)(=O)N4CCC[C@H]4C(=O)N4CCCNCC4)c3Cl)c2n1 | 65 °C
CSC1=NC(=O)C(=Cc2cccc(-c3cc(F)c(O)c(C45CC6CC(CC(C6)C4)C5)c3)c2)S1 | 270 to 271 °C
CC(C)NC(=O)NC1CCCc2sccc21 (stereo unspecified) | 223 to 226 °C
Cc1ccc(C2=CCC(=O)CC2)cc1 | 72 to 74 °C
CCC(CC)Cn1nc(-c2ccc(O)cc2O)c2cccc(C(F)(F)F)c21 | 89 to 90 °C
COC(=O)c1cnc(Nc2cc(N3CCN(CCO)CC3)nc(C)n2)s1 | 242 °C
CC(C)(C)N=NC1(C(N)=O)CCCCC1 | 86 to 92 °C
O=C1NCC=C2N=CN=C12 | 242 to 245 °C
O=C(Nc1cnc2[nH]ccc2c1)c1cc2cc(F)ccc2n1Cc1cccc(F)c1 | 266 to 267 °C
CCOC(=O)N1CCN(CCCN2C(=O)c3ccccc3C2=O)CC1 | 77 to 84 °C
CS(=O)(=O)c1ccc(-c2cc(/C=C/CO)nn2CC2CCCCC2)cc1 | 49 to 52 °C
CCOC(=O)CC[C@H](NC(=O)c1ccc(C#Cc2cnc3nc(NC(=O)C(C)(C)C)nc(O)c3c2)cc1)C(=O)OCC | > 250 °C
CN1C(=O)CN=C(c2ccccc2F)c2c1cc(Cl)c(NC(=O)C(F)(F)F)c2Cl | 238 to 240 °C
CCC12CCC(=O)C=C1c1c(cc(OCC(=O)OCC(C)=O)c(Cl)c1Cl)C2 (stereo unspecified) | 153 to 155 °C
COC(=O)c1c[nH]c(C(=O)c2ccc(C)cc2)c1 | 155 to 159 °C

Structure (SMILES) | melting point
COc1ccc2c(c1)c(COC(C)(C)C(=O)O)nn2Cc1ccccc1 | 128 to 130 °C
O=C(O)c1cccc(OCC(=O)C23CC4CC(CC(C4)C2)C3)c1 | 156 °C
CC1CN(Cc2ccccc2)CCC12CC(c1ccccc1)=NO2 (stereo unspecified) | 101 to 108 °C
CC(=O)N1CCC(Nc2ccccc2Oc2ccc(Cl)cc2Cl)CC1 | 145 to 146 °C
COc1cc(NCCOc2ccccc2C)ccc1C(=O)N1CCCC(CC(=O)N2CCN(C)CC2)c2cc(Cl)ccc21 (stereo unspecified) | 160 to 161 °C
CCOC(=O)C1=C(C)NC(c2csc(N)n2)=NC1c1ccc(F)cc1Cl (stereo unspecified) | 95 to 110 °C
CCC(CC)N1CCC(CNc2ccc(Cl)cc2C(=O)Nc2ccc(C)cn2)CC1 | 122 to 124 °C
COC(=O)c1ccc(-c2nc(-c3cc(C)sc3C)cs2)cc1 | 109 to 110 °C
COc1ccc(-c2nc3cc(Cl)c(Cl)cc3[nH]2)cc1[N+](=O)[O-] | 250 °C
NC[C@@H]1CCc2cc(S(=O)(=O)Nc3ccc(-n4ccn(CCCC5CCCCC5)c4=O)cc3)ccc2O1 | 108 to 110 °C
CN(C)S(=O)(=O)c1ccc(F)cc1 | 40 to 43 °C
N#CCNC(=O)c1ncn2c1CN(C(=O)N1CCCC1)c1ccccc1-2 | 241 to 242 °C
COc1ccccc1N1CCN([C@@H]2Cc3c(O)cccc3C[C@H]2O)CC1 (relative stereo) | 218 to 220 °C
Cc1nnc2ccc(-c3cccc(NC(=O)N(C)C)c3)nn12 | 237 to 239 °C
CC1(C)Oc2c(c(=O)n(Cc3ccccc3)c3ccccc23)[C@@H](N2CCCC2=O)[C@@H]1O (relative stereo) | > 260 °C
CN1CCN(c2cccc(Nc3cc(NC(=O)Nc4c(Cl)cc(Cl)cc4Cl)ncn3)c2)CC1 | 138 to 142 °C
O=C(NCCCS(=O)c1ccncc1)c1cccs1 (stereo unspecified) | 101 to 102 °C
CC1CC(=O)NN=C1c1ccc(NC(=O)OCc2cccc(Cl)c2)cc1 (stereo unspecified) | 165 to 166 °C
CC(C)(C)OC(=O)N1CCC(Oc2ccc(-c3cn[nH]c(=O)c3)cc2)CC1 | 222 to 223 °C
Cc1ccc(-n2nccc2-c2nn(-c3cccc(C(F)(F)F)c3)ccc2=O)cc1 | 164 to 165 °C
OCC(O)CNc1nc(-c2ccc(Cl)c(Cl)c2)nc2ccccc12 (stereo unspecified) | 162 to 164 °C
Cc1nc2c3c(ccn2c1C)[C@H](O)[C@](O)(Cc1ccccc1)[C@@H](c1ccccc1)N3 | 115 to 122 °C
NCc1nnc(-c2ncn3c2[C@@H]2CCN2C(=O)c2sccc2-3)o1 | 233 to 235 °C
COc1ccc(C2=NN(Cc3ccc(C(=O)O)cc3)C(=O)[C@H]3CCCC[C@@H]23)cc1OC (relative stereo) | 135 to 139 °C
O=CN1c2ccccc2N(Cc2ccccc2)CC1CN1CCCC1 (stereo unspecified) | 94 to 96 °C
N#CC(c1ccc(Cl)c(C(F)(F)F)c1)N1CCOCC1 (stereo unspecified) | 73 to 74 °C

Structure (SMILES) | melting point
CC(=O)OCC(COC(C)=O)(NC(=O)OC(C)(C)C)C(=O)c1ccccc1 | 112 to 113 °C
Cc1c(Br)c2c(c(C)c1NC(=O)OC(C)(C)C)C(N(C)C)C(C)(C)O2 (stereo unspecified) | 111 to 112 °C
Cc1ncc2n1-c1ccc(C(C)O)cc1C(c1ccccc1)=NC2 (stereo unspecified) | 223 to 225 °C
Cc1cn(-c2nc(C3=Nc4ccc(-c5ccccc5F)cc4NC(=O)C3)cs2)cn1 | 229 °C
COC(=O)c1cccc(C)c1[N+](=O)[O-] | 72 °C
N#Cc1c(F)ccc(O)c1F | 119 to 121 °C
O=C(O)Cc1cccc(OCc2ccc3oc([N+](=O)[O-])c(-c4ccccc4)c3c2)c1 | 144 to 145 °C
C[C@@H]([C@H](O)c1ccc(O)cc1)N1CCC(O)(Cc2ccccc2)CC1 (relative stereo) | 173 to 174 °C
CCCc1nc2c(N)nc3ccccc3c2n1CCCCN(O)C(=O)NC(C)C | 158 to 160 °C
CC(=O)c1ccc(-n2c(-c3sc(Nc4ccccc4)nc3-c3ccccc3)nc3ccccc3c2=O)cc1 | 223 to 225 °C
CC(C)CC1(C(CCN2C(=O)c3c(F)c(F)c(F)c(F)c3C2=O)C(=O)NO)CCN(CCc2ccccc2)C1=O (stereo unspecified) | 172 to 174 °C
CC1Cc2c(c(Cl)cc(Cl)c2-n2nc(C(C)(C)C)oc2=O)O1 (stereo unspecified) | 112 to 115 °C
c1ccc(-c2ccc3nc(C4(c5ccc6nccnc6c5)N=c5ccccc5=N4)[nH]c3c2)cc1 | 235 °C
CN(C)CC1COC2(CCN(c3nc4c(cc3F)C=C(C(=O)O)CN4c3ccc(F)cc3F)C2)O1 (stereo unspecified) | 154 to 155 °C
O=CNc1ccc([N+](=O)[O-])cc1 | 195 to 199 °C
CC(C)(C)C(=O)Oc1ccc(-c2nnn(Cc3ccccc3)n2)cc1 | 131 to 134 °C
CN1C(=O)N(CC(COc2ccc(-c3cccc(C#N)c3)cc2)N(O)C=O)C(=O)C1(C)C (stereo unspecified) | 130 to 132 °C
COc1cccc(OC)c1Cl | 69 to 71 °C
Clc1cc(CBr)c2noc(-c3ccc(Br)cc3)c2c1 | 147 to 150 °C
O=[N+]([O-])c1ccc(C=Cc2ccc(OCC(O)CO)cc2)cc1 (stereo unspecified) | 147 °C
COc1ccc(C(C[N+](=O)[O-])SC(=S)N(C)C)cc1OC (stereo unspecified) | 108 to 110 °C
CCCCCCCCCCCCc1ccccc1C(Sc1nc(C)c(C(=O)O)n1C)C(=O)O (stereo unspecified) | 104 to 106 °C
Cn1cc2c3c(ccc2n1)CCC3=O | 162 to 164 °C
